From patent US7098039B1, “Analysis of a sample to determine its characteristic cycle time” (The Victoria University of Manchester, priority 1998, dated 2006)
Like-named read-outs stand apart in the source and are kept apart here.

System: peptide sequence VCDWWGWGIC (mimic of the binding of drugs by the drug efflux protein P-glycoprotein)
Assay: Quenching of the natural tryptophan fluorescence of peptide […] on drug binding (FIG. 7h titration)
Settings: for relative intensity of the peak at 359.25 nm, indicating the degree of quenching: peptide 49.1 μM, 0.1 M Tris pH 7.5
Text: The system illustrated in FIG. 7 may be a drug binding to a protein or peptide comprising fluorescent amino acids at the site of binding.
The number in brackets, following each titration, is the relative intensity of the peak at 359.25 nm, indicating the degree of quenching.

[1] = peptide VCDWWGWGIC, linear sequence or cyclised, result in words

Q: For `CC[C@]1(O)C[C@@H]2CN(CCc3c([nH]c4ccccc34)[C@@](C(=O)OC)(c3cc4c(cc3OC)N(C)[C@H]3[C@@](O)(C(=O)OC)[C@H](OC(C)=O)[C@]5(CC)C=CCN6CC[C@]43[C@@H]65)C2)C1` [Vinblastine], which “natural tryptophan fluorescence of the peptide quenched by the drug” value (from here on “natural tryptophan fluorescence”) [1] is on record?
A: Its value is “quenched”.

Q: With `COC(=O)[C@H]1[C@H]2C[C@@H]3c4[nH]c5cc(OC)ccc5c4CCN3C[C@H]2C[C@@H](OC(=O)c2cc(OC)c(OC)c(OC)c2)[C@@H]1OC` [Reserpine] as the compound, how does the “natural tryptophan fluorescence” value [1] read?
A: Its value is “quenched”.

Q: Which results are given for `COc1cccc2c1C(=O)c1c(O)c3c(c(O)c1C2=O)C[C@@](O)(C(=O)CO)C[C@@H]3O[C@H]1C[C@H](N)[C@H](O)[C@H](C)O1` [Doxorubicin]?
A: natural tryptophan fluorescence of the peptide quenched by the drug [1]: quenched; relative intensity of the peak at 359.25 nm, indicating the degree of quenching (peptide:doxorubicin 1:0.1, 2.9 ml, without doxorubicin normalised at 999.99): 917.99; relative intensity of the peak at 359.25 nm, indicating the degree of quenching (peptide:doxorubicin 1:0.2, without doxorubicin 999.99): 835.53; relative intensity of the peak at 359.25 nm, indicating the degree of quenching (peptide:doxorubicin 1:0.3, without doxorubicin 999.99): 769.34; relative intensity of the peak at 359.25 nm, indicating the degree of quenching (peptide:doxorubicin 1:0.4, without doxorubicin 999.99): 704.25; relative intensity of the peak at 359.25 nm, indicating the degree of quenching (peptide:doxorubicin 1:0.5, without doxorubicin 999.99): 633.91; relative intensity of the peak at 359.25 nm, indicating the degree of quenching (peptide:doxorubicin 1:0.6, without doxorubicin 999.99): 594.31; relative intensity of the peak at 359.25 nm, indicating the degree of quenching (peptide:doxorubicin 1:0.7, without doxorubicin 999.99): 547.73; relative intensity of the peak at 359.25 nm, indicating the degree of quenching (peptide:doxorubicin 1:0.8, without doxorubicin 999.99): 498.54; relative intensity of the peak at 359.25 nm, indicating the degree of quenching (peptide:doxorubicin 1:0.9, without doxorubicin 999.99): 457.70; relative intensity of the peak at 359.25 nm, indicating the degree of quenching (peptide:doxorubicin 1:1, without doxorubicin 999.99): 415.96; relative intensity of the peak at 359.25 nm, indicating the degree of quenching (peptide:doxorubicin 1:1.1, without doxorubicin 999.99): 390.24

Q: How did the “natural tryptophan fluorescence” value [1] turn out when `C[C@H]1O[C@@H](O[C@H]2[C@@H](O)C[C@H](O[C@H]3[C@@H](O)C[C@H](O[C@H]4CC[C@@]5(C)[C@H](CC[C@@H]6[C@@H]5C[C@@H](O)[C@]5(C)[C@@H](C7=CC(=O)OC7)CC[C@]65O)C4)O[C@@H]3C)O[C@@H]2C)C[C@H](O)[C@@H]1O` [Digoxin] was run?
A: The value was “quenched”.

Q: With `N[C@@H](Cc1ccc(N(CCCl)CCCl)cc1)C(=O)O` [Melphalan] as the compound, how does the “natural tryptophan fluorescence” value [1] read?
A: The value was “quenched”.

Q: `O=c1c(-c2ccc(O)cc2)coc2cc(O)cc(O)c12` [Genistein] was tested. Which “natural tryptophan fluorescence” value (peptide […], linear sequence or cyclised, result in words) did it give?
A: Its value is “quenched”.

Q: For `CO[C@@H]1[C@@H](OC(N)=O)[C@@H](O)[C@H](Oc2ccc3c(O)c(NC(=O)c4ccc(O)c(CC=C(C)C)c4)c(=O)oc3c2C)OC1(C)C` [Novobiocin], which “natural tryptophan fluorescence” value [1] is on record?
A: Its value is “quenched”.

Q: With Cyclosporin A as the compound, how does the “natural tryptophan fluorescence” value [1] read?
A: The value was “quenched”.

Q: For `CC[C@H]1OC(=O)[C@H](C)[C@@H](O[C@H]2C[C@@](C)(OC)[C@@H](O)[C@H](C)O2)[C@H](C)[C@@H](O[C@@H]2O[C@H](C)C[C@H](N(C)C)[C@H]2O)[C@](C)(O)C[C@@H](C)C(=O)[C@H](C)[C@@H](O)[C@]1(C)O` [Erythromycin], which “natural tryptophan fluorescence” value [1] is on record?
A: Its value is “quenched”.

Q: How did the “natural tryptophan fluorescence” value turn out when `CN1C(=O)CN=C(c2ccccc2)c2cc(Cl)ccc21` [Diazepam] was run?
A: The value was “quenched”.
